Values quoted from earlier work, collected in patent US6126939A, “Anti-inflammatory dipeptide and pharmaceutical composition thereof” (Yeda Research and Development Co. Ltd., priority 1997, dated 2000).

Tests used:
macrophage migration = conditions: literature
[1] = in vitro test assay
blood sugar levels = conditions: rats, i.p. 100 mg/kg
IL-1 = conditions: literature

Compound	macrophage migration (macrophage migration)	antilipolytic activity [1]	hypoglycemic activity (lowering of blood sugar levels) (blood sugar levels)	secretion of IL-1 macrophages (IL-1)
COc1ccc2c(C(=S)N(C)CC(=O)O)cccc2c1C(F)(F)F [Tolrestat]	Another MIF	–	–	–
Arg-Asn	–	no significant antilipolytic activity	having hypoglycemic activity	–
Arg-Asn-NH2	–	have antilipolytic activity	having hypoglycemic activity	–
Asn-Arg-NH2	–	have antilipolytic activity	having hypoglycemic activity	–
Gln-Arg-NH2	–	have antilipolytic activity	having hypoglycemic activity	–
Gln-Arg-OMe	–	no significant antilipolytic activity	having hypoglycemic activity	–
Glu-Arg-NH2	–	have antilipolytic activity	did not significantly lower blood sugar levels	–
Glu-Arg-OMe	–	have antilipolytic activity	having hypoglycemic activity	–
Thr-Lys-Pro [TKP]	inhibit macrophage migration	–	–	reduce secretion of IL-1
